Counter-ions that a name gives are not always drawn.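 Compound exposure: 48 hours, 5 concentrations, 96-well plates. GI50: concentration for 50% inhibition of growth.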 Calls of active or inactive are those of the source. Rule as the data show it: active = GI50 up to about 1.1 µM and inactive = higher.
Key:
Test in all cases: DTP human tumour cell line panel, 48 h
[1] = tested on: SNB-19
[2] = tested on: SN12C
[3] = tested on: SK-MEL-28
[4] = tested on: NCI-H226
[5] = tested on: NCI/ADR-RES
[6] = tested on: U-251
[7] = tested on: NCI-H23
[8] = tested on: UO-31
[9] = tested on: OVCAR-4
[10] = tested on: IGROV-1
[11] = tested on: RPMI-8226
[12] = tested on: NCI-H522
[13] = tested on: A498
[14] = tested on: 786-0
[15] = tested on: SR
[16] = tested on: KM12
[17] = tested on: MCF7
[18] = tested on: M14
[19] = tested on: COLO 205
[20] = tested on: Hs-578T

Compound | GI50 [1] | GI50 [2] | GI50 [3] | GI50 [4] | GI50 [5] | GI50 [6] | GI50 [7] | GI50 [8] | GI50 [9] | GI50 [10] | GI50 [11] | GI50 [12] | GI50 [13] | GI50 [14] | GI50 [15] | GI50 [16] | GI50 [17] | GI50 [18] | GI50 [19] | GI50 [20]
C[n+]1c2ccccc2c(CNC(CCC(N)=O)C(=O)O)c2ccccc21 (stereo not given) | 6.18 µM (inactive) | 2.64 µM (inactive) | 5.96 µM (inactive) | 8.3 µM (inactive) | 4.56 µM (inactive) | 3.31 µM (inactive) | 3.9 µM (inactive) | 2.67 µM (inactive) | 3.46 µM (inactive) | 4.15 µM (inactive) | 0.39 µM (active) | 1.57 µM (inactive) | 0.6 µM (active) | 1.01 µM (active) | 1.07 µM (active) | 2.46 µM (inactive) | 1.02 µM (active) | 3.41 µM (inactive) | 0.525 µM (active) | 5.68 µM (inactive)
Cc1ccc(S(=O)(=O)/N=C2/N(C)CCCS2(=O)=O)cc1 | > 100 µM (inactive) | > 100 µM (inactive) | > 100 µM (inactive) | > 100 µM (inactive) | > 100 µM (inactive) | > 100 µM (inactive) | > 100 µM (inactive) | > 100 µM (inactive) | > 100 µM (inactive) | > 100 µM (inactive) | > 100 µM (inactive) | > 100 µM (inactive) | > 100 µM (inactive) | > 100 µM (inactive) | > 100 µM (inactive) | > 100 µM (inactive) | > 100 µM (inactive) | > 100 µM (inactive) | > 100 µM (inactive) | > 100 µM (inactive)
O=C1/C(=C\c2ccco2)Oc2ccccc21 | > 100 µM (inactive) | > 100 µM (inactive) | > 100 µM (inactive) | > 100 µM (inactive) | > 100 µM (inactive) | > 100 µM (inactive) | > 100 µM (inactive) | 76.2 µM (inactive) | > 100 µM (inactive) | 99.1 µM (inactive) | 89.5 µM (inactive) | > 100 µM (inactive) | > 100 µM (inactive) | > 100 µM (inactive) | 55.2 µM (inactive) | > 100 µM (inactive) | 29.4 µM (inactive) | > 100 µM (inactive) | > 100 µM (inactive) | > 100 µM (inactive)
COc1ccc(/N=C2\C(=S)N(c3ccc(OC)cc3)/C(=N/S(=O)(=O)c3ccccc3)N2c2ccccc2)cc1 | 36.9 µM (inactive) | 15.1 µM (inactive) | 13.8 µM (inactive) | 16 µM (inactive) | 23.6 µM (inactive) | 8.53 µM (inactive) | 10.2 µM (inactive) | 3.59 µM (inactive) | 9.25 µM (inactive) | 12.9 µM (inactive) | 1.45 µM (inactive) | 1.64 µM (inactive) | > 100 µM (inactive) | 7.14 µM (inactive) | 0.889 µM (active) | 13.2 µM (inactive) | 17 µM (inactive) | 4.9 µM (inactive) | 8.81 µM (inactive) | 17.9 µM (inactive)
Cn1ccnc1CC(C)(O)c1ccccc1 (stereo not given) | > 100 µM (inactive) | > 100 µM (inactive) | > 100 µM (inactive) | > 100 µM (inactive) | > 100 µM (inactive) | > 100 µM (inactive) | > 100 µM (inactive) | > 100 µM (inactive) | > 100 µM (inactive) | > 100 µM (inactive) | > 100 µM (inactive) | > 100 µM (inactive) | > 100 µM (inactive) | > 100 µM (inactive) | > 100 µM (inactive) | > 100 µM (inactive) | > 100 µM (inactive) | > 100 µM (inactive) | > 100 µM (inactive) | > 100 µM (inactive)
CCSCC(N)C(=O)O (stereo not given) | > 100 µM (inactive) | > 100 µM (inactive) | > 100 µM (inactive) | > 100 µM (inactive) | > 100 µM (inactive) | > 100 µM (inactive) | > 100 µM (inactive) | > 100 µM (inactive) | > 100 µM (inactive) | > 100 µM (inactive) | > 100 µM (inactive) | > 100 µM (inactive) | > 100 µM (inactive) | > 100 µM (inactive) | > 100 µM (inactive) | > 100 µM (inactive) | > 100 µM (inactive) | > 100 µM (inactive) | > 100 µM (inactive) | > 100 µM (inactive)
COC(OC)C1OCC(n2cc(F)c(=O)[nH]c2=O)C1O (stereo not given) | > 100 µM (inactive) | > 100 µM (inactive) | > 100 µM (inactive) | > 100 µM (inactive) | > 100 µM (inactive) | > 100 µM (inactive) | > 100 µM (inactive) | > 100 µM (inactive) | > 100 µM (inactive) | > 100 µM (inactive) | > 100 µM (inactive) | > 100 µM (inactive) | > 100 µM (inactive) | > 100 µM (inactive) | > 100 µM (inactive) | > 100 µM (inactive) | > 100 µM (inactive) | > 100 µM (inactive) | > 100 µM (inactive) | > 100 µM (inactive)
CN(C)CCNC(=O)C(C)(C)Oc1ccc(C(=O)c2ccc(Cl)cc2)cc1Cl | 13 µM (inactive) | 13.4 µM (inactive) | 1.94 µM (inactive) | 14.7 µM (inactive) | 12.5 µM (inactive) | 7.05 µM (inactive) | 9.86 µM (inactive) | 9.59 µM (inactive) | 14.5 µM (inactive) | 11.9 µM (inactive) | 3.94 µM (inactive) | 15 µM (inactive) | 16.1 µM (inactive) | 3.91 µM (inactive) | 6.84 µM (inactive) | 8.93 µM (inactive) | 8.34 µM (inactive) | 2.45 µM (inactive) | 1.82 µM (inactive) | 6.14 µM (inactive)
CC(=O)N(O)CCCCCNC(=O)CCC(=O)N(O)CCCCCNC(=O)CCC(=O)N(O)CCCCCN [DEFEROXAMINE HYDROCHLORIDE] | 51.6 µM (inactive) | 25.9 µM (inactive) | 37.9 µM (inactive) | 26.9 µM (inactive) | > 72.3 µM (inactive) | 20.6 µM (inactive) | 63.5 µM (inactive) | 24.5 µM (inactive) | 21.7 µM (inactive) | 65.6 µM (inactive) | 62.5 µM (inactive) | 41.9 µM (inactive) | > 80.4 µM (inactive) | 13.3 µM (inactive) | 8.87 µM (inactive) | 26.7 µM (inactive) | 37.9 µM (inactive) | 19 µM (inactive) | 34.7 µM (inactive) | > 100 µM (inactive)
Cc1nc(-c2ccc(/N=C/c3ccc(N(CCOS(C)(=O)=O)CCOS(C)(=O)=O)cc3C)cc2)cs1 | > 100 µM (inactive) | 27.8 µM (inactive) | 97.9 µM (inactive) | 5.71 µM (inactive) | > 100 µM (inactive) | 36.9 µM (inactive) | 35.4 µM (inactive) | 18.7 µM (inactive) | 59.6 µM (inactive) | 28.8 µM (inactive) | 17.8 µM (inactive) | 24.3 µM (inactive) | 2.31 µM (inactive) | 13.8 µM (inactive) | 9.51 µM (inactive) | 32.1 µM (inactive) | 2.44 µM (inactive) | 60 µM (inactive) | 28.5 µM (inactive) | 88.3 µM (inactive)
O=c1c2ccccc2n2nnc3ccc(NCCCNCCNCCCNc4ccc5nnn6c7ccccc7c(=O)c4c56)c1c32 | 6.84 µM (inactive) | 0.457 µM (active) | > 18.5 µM (inactive) | 0.005 µM (active) | 12.6 µM (inactive) | 0.759 µM (active) | 3.83 µM (inactive) | 2.86 µM (inactive) | 2.3 µM (inactive) | 0.57 µM (active) | 0.716 µM (active) | 0.234 µM (active) | 16.3 µM (inactive) | 0.48 µM (active) | 0.0883 µM (active) | 3.24 µM (inactive) | 0.447 µM (active) | > 12.6 µM (inactive) | 1.39 µM (inactive) | 5.52 µM (inactive)
CN/C(N)=N/N=C1/C(=O)Nc2ccccc21 | > 100 µM (inactive) | > 100 µM (inactive) | > 100 µM (inactive) | > 100 µM (inactive) | > 100 µM (inactive) | > 100 µM (inactive) | > 100 µM (inactive) | > 100 µM (inactive) | > 100 µM (inactive) | > 100 µM (inactive) | > 100 µM (inactive) | > 100 µM (inactive) | > 100 µM (inactive) | > 100 µM (inactive) | > 100 µM (inactive) | > 100 µM (inactive) | > 100 µM (inactive) | > 100 µM (inactive) | > 100 µM (inactive) | > 100 µM (inactive)
O=S(=O)(O)c1ccc(-c2c3nc(c(-c4ccc(S(=O)(=O)O)cc4)c4ccc([nH]4)c(-c4ccc(S(=O)(=O)O)cc4)c4nc(c(-c5ccc(S(=O)(=O)O)cc5)c5ccc2[nH]5)C=C4)C=C3)cc1 | 65.9 µM (inactive) | 42.7 µM (inactive) | 24.1 µM (inactive) | 32.7 µM (inactive) | 90.6 µM (inactive) | 60.5 µM (inactive) | 64.4 µM (inactive) | 37.4 µM (inactive) | 29 µM (inactive) | 53.3 µM (inactive) | 52.8 µM (inactive) | 47.3 µM (inactive) | > 100 µM (inactive) | > 100 µM (inactive) | 45.3 µM (inactive) | 51.5 µM (inactive) | > 100 µM (inactive) | > 100 µM (inactive) | 42 µM (inactive) | 13.9 µM (inactive)
c1ccc(CNCCCNCCCCNCCCNCc2ccccc2)cc1 | 13.2 µM (inactive) | 3.72 µM (inactive) | 12.1 µM (inactive) | 4.68 µM (inactive) | 38.7 µM (inactive) | 7.87 µM (inactive) | 2.38 µM (inactive) | 12.2 µM (inactive) | 13.8 µM (inactive) | 1.93 µM (inactive) | 2.22 µM (inactive) | 1.57 µM (inactive) | > 10 µM (inactive) | 1.5 µM (inactive) | 3.39 µM (inactive) | 5.52 µM (inactive) | 3.21 µM (inactive) | 5.46 µM (inactive) | 1.82 µM (inactive) | 1.91 µM (inactive)

From ChEMBL document CHEMBL1201862, “PubChem BioAssay data set” (2004)
